Assay results from publication PMC9820279 (International Journal of Molecular Sciences, 2022).
Like-named read-outs stand apart in the source and are kept apart here.

Tested on: HBMEC monolayer
[1] = matrix ASFE extract 24 µg/mL, 2 h incubation, n.d = not detected in lower compartment
[2] = matrix ASFE extract 24 µg/mL, 4 h incubation, n.d = not detected in lower compartment

With C=CC(C)(O)CCC=C(C)CCC=C(C)C (mixture of isomers) [Nerolidol] the “Te % (SEM) 2 h” value (human) was 30.1 (2.5) % and the “Te % (SEM) 4 h” value (human) was 59.8 (2.4) %.

C[C@H]1[C@H](C)CC[C@]2(CO)CC[C@]3(C)C(=CC[C@@H]4[C@@]5(C)CC[C@H](O)C(C)(C)[C@@H]5CC[C@]43C)[C@H]12 (single isomer, unassigned) [Uvaol Isomer I, Uvaol] was tested, and the “Te % (SEM) 2 h” value (human) was 3.3 (0.1) % and the “Te % (SEM) 4 h” value (human) was 38.8 (3.2) %.

In the case of C[C@H]1[C@H](C)CC[C@]2(CO)CC[C@]3(C)C(=CC[C@@H]4[C@@]5(C)CC[C@H](O)C(C)(C)[C@@H]5CC[C@]43C)[C@H]12 (single isomer, unassigned) [Uvaol Isomer II, Uvaol], the “Te % (SEM) 2 h” value (human) is reported as 17.7 (1.0) % and the “Te % (SEM) 4 h” value (human) is reported as 38.3 (0.7) %.

In the case of CC1=CCC2C(C1)C2(C)C (stereo not drawn) [3-Carene], the “Te % (SEM) 4 h” value (human, 4 h, 15 µg/mL) is reported as 20.3 (0.9) %.

In the case of C/C=C/C(=O)C1=C(C)CC(O)CC1(C)C (stereo not drawn) [3-hydroxy-β-damascone], the “Te % (SEM) 2 h” value is reported as 84.5 (3.2) %.

For C[C@@H]1CC[C@@H]2[C@@H]1[C@H]1[C@@H](CC[C@@]2(C)O)C1(C)C [(-)-Globulol], the “Te % (SEM) 2 h” value was 44.1 (3.6) %.

With CC1=CCCC2(C)CCC3C(C)(C)CC132 (stereo not drawn) [(−)-α-Panasinsen] the “Te % (SEM) 2 h” value was 19.8 (0.2) %.

CC1(C)C2CCC1(C)C(O)C2 (stereo not drawn) [Borneol] was tested, and the “Te % (SEM) 2 h” value (human, 2 h, 40 µg/mL) was 8.5 (0.3) % and the “Te % (SEM) 4 h” value (human, 4 h, 40 µg/mL) was 35.2 (0.1) %.

In the case of O=C(/C=C/c1ccc(O)c(O)c1)c1ccc(O)cc1O [Butein], the “Te % (SEM) 2 h” value [1] is reported as 27.5 (2.0) % and the “Te % (SEM) 4 h” value [2] is reported as 36.3 (2.6) %.

O=C(O)/C=C/c1ccc(O)c(O)c1 [Caffeic acid] was tested, and the “Te % (SEM) 2 h” value (human, 2 h, 24 µg/mL) was 55.4 (3.7) %, the “Te % (SEM) 2 h” value (human, 2 h, 30 µg/mL) was 34.8 (1.2) % and the “Te % (SEM) 4 h” value (human, 4 h, 24 µg/mL) was 68.3(0.3) %. For the same molecule, the “Te % (SEM) 4 h” value (human, 4 h, 30 µg/mL) was 50.1 (3.4) %.

For O=C(/C=C/c1ccc(O)c(O)c1)OC1[C@H](O)CC(O)(C(=O)O)C[C@H]1O (stereo partly drawn) [Caffeoylquinic acid], the “Te % (SEM) 2 h” value was 15.7 (0.4) % and the “Te % (SEM) 4 h” value was 74.8 (2.9) %.

CC(C)[C@H](C)CC[C@@H](C)[C@H]1CC[C@H]2[C@@H]3CC=C4C[C@@H](O)CC[C@]4(C)[C@H]3CC[C@]12C [Campesterol] was tested, and the “Te % (SEM) 2 h” value (human) was 68.7 (2.2) %.

C=C1CC[C@H]2O[C@]2(C)CC[C@@H]2[C@@H]1CC2(C)C [Caryophyllene oxide] was tested, and the “Te % (SEM) 2 h” value was 67.7 (0.9) %.

In the case of C[C@H]1[C@H](C)CC[C@]2(C(=O)O)CC[C@]3(C)C(=CC[C@@H]4[C@@]5(C)C[C@@H](O)[C@H](O)C(C)(C)[C@@H]5CC[C@]43C)[C@H]12 [Corosolic acid], the “Te % (SEM) 2 h” value [1] is reported as 33.4 (1.9) % and the “Te % (SEM) 4 h” value [2] is reported as 39.6 (1.9) %.

In the case of O=C(/C=C/c1ccc(O)cc1)O[C@@H](C(=O)O)[C@@H](O)C(=O)O [Coutaric acid], the “Detection / transport to lower compartment (brain side) of HBMEC-BBB model” value (ASFE extract) is reported as “not detected in the lower compartment”.

In the case of CC1(C)CCCC2(C)OC(=O)C=C12 (stereo not drawn) [Dihydroactinidiolide], the “Te % (SEM) 2 h” value (human) is reported as 42.2 (3.5) % and the “Te % (SEM) 4 h” value (human) is reported as 51.8 (3.0) %.

C=C[C@]1(C)CC[C@@H](C(C)(C)O)C[C@H]1C(=C)C [Elemol] was tested, and the “Te % (SEM) 2 h” value was 24.6 (0.5) % and the “Te % (SEM) 4 h” value was 25.4 (1.6) %.

For CCOC(=O)/C=C/c1ccc(O)c(O)c1 [Ethyl caffeate], the “Te % (SEM) 2 h” value was 33.4 (2.4) % and the “Te % (SEM) 4 h” value was 35.7 (0.3) %.

With O=C(O)c1cc(O)c(O)c(O)c1 [Gallic acid] the “Te % (SEM) 2 h” value (human, 2 h, 30 µg/mL) was 33.0 (1.9)/39.9 (1.4) %, the “Te % (SEM) 4 h” value (human, 4 h, 30 µg/mL) was 62.9 (0.3)/67.9(1.3) % and the “Te % (SEM) 2 h” value [1] was 33.0 (1.9)/39.9 (1.4) %. The “Te % (SEM) 4 h” value [2] was 62.9 (0.3)/67.9(1.3) %.

With CC(CC(=O)CC(C)C1CC(O)C2(C)C3=C(C(=O)CC12C)C1(C)CCC(O)C(C)(CO)C1CC3)C(=O)O (stereo not drawn) [Ganolucidic acid C] the “Te % (SEM) 2 h” value [1] was 11.7 (0.7) % and the “Te % (SEM) 4 h” value [2] was 15.6 (0.3) %.

For CC(C)=CCC/C(C)=C/CC/C(C)=C/CC/C(C)=C/CO [Geranylgeraniol], the “Te % (SEM) 2 h” value was 30.2 (1.1) % and the “Te % (SEM) 4 h” value was 56.6 (3.1) %.

For C=C1/C=C/[C@H](C(C)C)CC/C(C)=C/CC1 [Germacrene D], the “Te % (SEM) 2 h” value was 3.2 (0.2) % and the “Te % (SEM) 4 h” value was 6.6 (0.4) %.

In the case of COc1ccc([C@@H]2CC(=O)c3c(O)cc(O)cc3O2)cc1O [Hesperetin], the “Te % (SEM) 2 h” value (human, 2 h, 24 µg/mL) is reported as 65.5 (4.8) % and the “Te % (SEM) 4 h” value (human, 4 h, 24 µg/mL) is reported as 67.2 (3.6) %.

In the case of CC1(C)C[C@H](O)C[C@]2(C)OC(=O)C=C12 [Isololiolide], the “Te % (SEM) 2 h” value is reported as 33.0 (2.6) % and the “Te % (SEM) 4 h” value is reported as 61.4 (4.3) %.

With C=CC(C)(O)CCCC(C)CCCC(C)CCCC(C)C (stereo not drawn) [Isophytol] the “Te % (SEM) 2 h” value was 15.6 (1.0) % and the “Te % (SEM) 4 h” value was 58.0 (1.7) %.

With O=c1c(O)c(-c2ccc(O)cc2)oc2cc(O)cc(O)c12 [Kaempferol] the “Te % (SEM) 2 h” value (human, 2 h, 24 µg/mL) was 31.5 (1.1) % and the “Te % (SEM) 4 h” value (human, 4 h, 24 µg/mL) was 36.5 (2.2) %.

With CC1=CC[C@@H](C(C)(C)O)CC1 [L-α-Terpineol] the “Te % (SEM) 2 h” value was 17.6 (1.3) % and the “Te % (SEM) 4 h” value was 59.3 (0.4) %.

With C=C(C)C1CCC2(C)OC2C1 (stereo not drawn) [Limonene Epoxide] the “Te % (SEM) 2 h” value was 19.5 (1.2) % and the “Te % (SEM) 4 h” value was 42.4 (3.2) %.

For C=C(C)[C@H]1CC=C(C)CC1 [Limonene], the “Te % (SEM) 2 h” value was 33.6 (2.3) % and the “Te % (SEM) 4 h” value was 59.3 (2.9) %.

For CC1(C)C[C@@H]2C3=CC[C@@H]4[C@@]5(C)CC[C@H](O)[C@@](C)(C=O)C5CC[C@@]4(C)[C@]3(C)CC[C@@]2(C(=O)O)C[C@@H]1O (stereo partly drawn) [Lucyin A], the “Te % (SEM) 2 h” value [1] was 7.6 (0.5) % and the “Te % (SEM) 4 h” value [2] was 25.3 (0.7) %.
